Paper PMC9447431 (Journal of chemical information and modeling, 2021)
Where two headings read alike, the source gives them in different places.

Experiments:
Format in all cases: cell-based
OPRK [1] = target: T1, OPRK (Homo sapiens, UniProt P41145); test: cell-based
OPRM [2] = target: T2, OPRM (Homo sapiens, UniProt P35372); test: cell-based
OPRM [3] = target: T2, OPRM; test: cell-based; remark: listed apart in the source
OPRK [4] = target: T1, OPRK; test: qHTS cAMP assay, agonist mode, HKOR cells
OPRD [5] = target: T3, OPRD (Homo sapiens, UniProt P41143); test: qHTS cAMP assay, agonist mode, HDOR cells; conditions: CHO-K1 cells expressing human δ-OPR (HDOR)
OPRD [6] = target: T3, OPRD; test: qHTS cAMP assay, antagonist mode, HDOR cells
[7] = OPRK-agonist, CHO-K1 cells expressing human κ-OPR (HKOR), cAMP

T3 sequence (P41143 whole entry): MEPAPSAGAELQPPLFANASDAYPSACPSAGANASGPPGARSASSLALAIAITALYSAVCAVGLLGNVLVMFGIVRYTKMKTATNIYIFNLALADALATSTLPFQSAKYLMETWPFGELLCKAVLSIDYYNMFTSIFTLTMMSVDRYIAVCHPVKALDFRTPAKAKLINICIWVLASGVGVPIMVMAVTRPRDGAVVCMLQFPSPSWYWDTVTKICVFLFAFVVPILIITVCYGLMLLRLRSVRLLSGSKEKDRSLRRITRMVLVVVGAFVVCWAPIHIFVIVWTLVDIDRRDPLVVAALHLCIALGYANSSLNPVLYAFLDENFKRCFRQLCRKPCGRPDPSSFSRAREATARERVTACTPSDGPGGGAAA
T1 sequence (P41145 whole entry): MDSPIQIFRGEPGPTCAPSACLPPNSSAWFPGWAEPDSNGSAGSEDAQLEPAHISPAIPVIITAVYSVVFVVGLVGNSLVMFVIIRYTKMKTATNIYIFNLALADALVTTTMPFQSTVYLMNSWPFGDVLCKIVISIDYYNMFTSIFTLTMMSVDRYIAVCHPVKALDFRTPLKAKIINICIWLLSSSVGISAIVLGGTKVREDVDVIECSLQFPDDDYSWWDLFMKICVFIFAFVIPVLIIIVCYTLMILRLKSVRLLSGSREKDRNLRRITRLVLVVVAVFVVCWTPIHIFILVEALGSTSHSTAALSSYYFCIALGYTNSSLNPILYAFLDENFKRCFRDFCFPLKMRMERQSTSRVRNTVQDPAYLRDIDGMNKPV
T2 sequence (P35372 whole entry): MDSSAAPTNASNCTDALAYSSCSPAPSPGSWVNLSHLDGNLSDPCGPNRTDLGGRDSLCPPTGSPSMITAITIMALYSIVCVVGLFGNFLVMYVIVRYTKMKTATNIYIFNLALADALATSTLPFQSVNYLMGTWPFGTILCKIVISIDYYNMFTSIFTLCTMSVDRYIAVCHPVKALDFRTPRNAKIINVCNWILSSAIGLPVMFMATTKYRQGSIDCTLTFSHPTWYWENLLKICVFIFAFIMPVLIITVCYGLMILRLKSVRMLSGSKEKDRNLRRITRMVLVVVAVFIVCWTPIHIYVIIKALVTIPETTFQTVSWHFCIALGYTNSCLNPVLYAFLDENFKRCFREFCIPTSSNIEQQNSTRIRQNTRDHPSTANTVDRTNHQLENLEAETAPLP

## COc1ccc(NC(=O)Cn2c(=O)n(-c3ccc(CC(=O)NCC4CCCO4)cc3)c(=O)c3ccccc32)c(OC)c1 (centres unmarked) [NCGC00106344-01]
OPRK [1]
  AC50: 2060 nM
  IC50: 2060 nM

## CCCC1=Nc2cc(C(=O)N3CCC(C)CC3)ccc2Sc2ccc(C)cc21 [NCGC00107633-01]
OPRM [2]
  AC50: 920 nM

## O=C(NCCCc1nc2ccccc2n1Cc1c(F)cccc1Cl)C1CCCCC1 [NCGC00114741-01]
OPRM [2]
  AC50: 520 nM

## O=C(NCCCc1nc2ccccc2n1Cc1ccccc1Cl)C1CCCCC1 [NCGC00114743-01]
OPRM [2]
  AC50: 1640 nM

## COc1ccccc1N1CCN(Cc2cc(COC(C)C)c3cccnc3c2O)CC1 [NCGC00114968-02]
OPRM [3]
  AC50: 650 nM

## Cc1cc(Cl)ccc1OCC(=O)N(Cc1ccc(N(C)C)cc1)CC1CCCO1 (centres unmarked) [NCGC00117293-01]
OPRK [4]; [7]
  AC50: 2500 nM

## CN1CCN(C2(CNC(=O)c3ccc(C(C)(C)C)cc3)CCCCC2)CC1 [NCGC00118549-01]
OPRM [2]
  AC50: 460 nM

## Cc1cccc(OCC(=O)NCC2(N3CCN(C)CC3)CCCCC2)c1C [NCGC00118605-01]
OPRM [2]
  AC50: 1830 nM

## O=C(Nc1ccccc1C(F)(F)F)N1CCC(CN2CCc3ccccc3C2)CC1 [NCGC00123899-01]
OPRM [2]
  AC50: 920 nM

## CCC(=O)NCC(c1ccc2c(c1)OCO2)N1CCN(c2ccccc2)CC1 (centres unmarked) [NCGC00135974-01]
OPRK [4]; [7]
  AC50: 1160 nM

## CCOC(=O)c1c(NC(=O)c2ccc(S(=O)(=O)N(C)C)cc2)sc2c1CCN(C)C2 [NCGC00136158-01]
OPRD [5]
  AC50: 2310 nM

## CCCN(CCC)S(=O)(=O)c1ccc(C(=O)Nc2sc3c(c2C(=O)OC)CCN(CC)C3)cc1 [NCGC00139128-01]
OPRD [5]
  AC50: 2060 nM

## CCn1c(=N)n(CCOc2ccc(Br)cc2)c2ccccc21 [NCGC00141762-01]
OPRM [2]
  AC50: 2060 nM

## O=C(O)c1ccc(O)c2ncc(N3CCCN(CCc4cccc5ccccc45)CC3)cc12 [NCGC00247751-02]
OPRM [2]
  AC50: 650 nM

## CO[C@H]1C[C@@H]2CC[C@@H](C)[C@@](O)(O2)C(=O)C(=O)N2CCCC[C@H]2C(=O)O[C@H]([C@H](C)C[C@@H]2CC[C@@H](OP(C)(C)=O)[C@H](OC)C2)CC(=O)[C@H](C)/C=C(\C)[C@@H](O)[C@@H](OC)C(=O)[C@H](C)C[C@H](C)/C=C/C=C/C=C/1C [NCGC00346481-02, Ridaforolimus]
OPRK [4]
  AC50: 130 nM

## Cc1cn(CCN2CCN(c3ccccc3-c3cc(C#N)cc(C(=O)NCCCN4CCCC4)c3)CC2)c2ccccc12 [NCGC00356417-05, LLY-507]
OPRM [2]
  AC50: 130 nM

## O=C(NCCN1CCC(n2c(=O)[nH]c3ccccc32)CC1)c1cc2cc(F)ccc2[nH]1 [NCGC00370807-05, FIPI]
OPRM [2]
  AC50: 580 nM

## N#CC(CCCN1CCC(O)(c2ccc(Cl)cc2)CC1)(c1ccccc1)c1ccccc1 [NCGC00378719-01, VUF-2274]
OPRM [2]
  AC50: 410 nM

## O=C(CC(c1ccccc1)c1ccccc1)N1CCN(C(c2ccccc2)c2ccccc2)CC1 [NCGC00378879-01, NP-118809]
OPRM [2]
  AC50: 1830 nM

## COc1ccccc1N1CCN(CC[C@@](C)(C(=O)C2CCCCC2)c2ccccc2)CC1 [NCGC00386484-01, LY 426965]
OPRM [2]
  AC50: 180 nM

## Cc1cccc(-c2[nH]c(Cc3cccc(C(N)=O)c3)nc2-c2ccc3nccnc3c2)n1 [NCGC00386726-01, IN-1130]
OPRK [1]
  AC50: 2060 nM
  IC50: 2060 nM

## Nc1ncnc2c1nc(Cl)n2[C@@H]1O[C@@H]2COP(=O)(O)O[C@H]2[C@H]1O [NCGC00485288-01, Tocladesine]
OPRM [3]
  AC50: 1030 nM
OPRK [1]
  AC50: 920 nM
OPRD [6]
  AC50: 460 nM

## Nc1ncnc2c1ncn2[C@@H]1O[C@@H]2COP(O)(=S)O[C@H]2[C@H]1O (some centres unmarked) [NCGC00485585-01, Adenosine 3’,5’-cyclothiophosphate]
OPRM [3]
  AC50: 60 nM
  IC50: 40 to 70 nM
OPRK [1]
  AC50: 70 nM
  IC50: 40 to 70 nM
OPRD [6]; OPRD, antagonist mode, range given for all three receptors
  IC50: 40 to 70 nM
OPRD [6]; OPRD-antagonist, HDOR cells, with 2nM dynorphin B
  AC50: 40 nM
